Experimental findings from patent publication US9809640B2, “ApoE peptide dimers and uses thereof” (priority 2010, dated 2017) are described below.

Like-named read-outs stand apart in the source and are kept apart here. Non-standard residues stand in square brackets, D forms with d. Residues, ends and D or L forms follow the SMILES beside them. No end group written: not given here. Aib = CC(C)(N)C(=O)O Some results are limits rather than exact numbers.

One data set concerns BV2 microglia cells. Nature of the data set: LPS-induced nitric oxide production in BV2 microglia cells. It counts as cell-based. The note with it: 50% suppression of nitric oxide release from BV2 cells following LPS stimulation. The protocol: FIG. 1. COG 112 inhibits LPS-induced production of inflammatory cytokines in BV2 microglia cells. Inhibition curves for COG112 in the production of NO (green squares), TNFα (red diamonds), and IL-6 (blue triangles) by BV2 microglia. Compounds were added to the final concentrations indicated on the graph along with 100 ng/mL of LPS. After 24 hours the media was removed and assayed by two-site ELISA (BioSource) and quantitated relative to a standard curve on the same plate.
FIG. 3. NO Inhibition curve for COG449. BV2 microglia were treated with COG449 at the final concentrations indicated on the graph, along with 100 ng/mL of LPS. After 24 hours the media was removed and assayed by two-site ELISA (BioSource) and quantitated relative to a standard curve on the same plate.
(§1) We also evaluated the various peptides for efficacy in suppressing nitric oxide production induced by LPS stimulation of BV2 microglia cells as a measure of anti-inflammatory activity as well as the maximum dose tolerated in mice (Table I and FIG. 6A). For the LPS assay, EC50 is the concentration of compound that caused a 50% suppression of nitric oxide release from BV2 cells following LPS stimulation. For mouse toxicity, MTD is the maximum dose of the compound that can be given by intravenous injection without causing deaths after 24 hrs. […] Coupling the ApoE domain to a protein transduction domain further enhanced the potency of the dimers.
Low passage BV2 microglial cell cultures are maintained in 10% HI (Heat Inactivated) FBS DMEM media (supplemented with MEM NEAA (Non-Essential Amino Acids), sodium pyruvate and Pen-Strep) and continuously cultured until needed. To determine the IC50 values for NO production, peptides are added to BV2 cultures in 1% HI FBS DMEM media (supplemented with MEM NEAA and sodium pyruvate) at a range of final assay concentrations from 1.0 μM in 2 fold dilutions to 7.8 nM followed immediately by addition of LPS (100 ng/mL final concentration) as previously described (Laskowitz et al. (2001) Exp Neurol, Vol. 167(1): 74-85). After incubating for 18±1 hours, conditioned media is removed for analysis of nitrite (the stable oxidation product of released nitric oxide) by the Griess colorimetric assay (Promega). Remaining cells are assayed for viability in an MTT assay (Promega) and the nitrite assay values are normalized for each concentration using the percent viability of cells in the MTT assay. […] Typically, the absence of LPS exposure to BV2 cells results in levels below the limit of detection in our assays. Similarly, addition of any of the peptides up to 25 μM without LPS results in undetectable NO levels.

The subject of the next data set is B-CLL cells. Nature of the data set: Cytotoxicity on patient-derived B-CLL cells (MTS assay). The note with it: for Fold Change: CLL EC50 relative to COG056 (rev133) = 1.0. From the text:
FIG. 5A: Dose response curves for COG449 cytotoxicity on CLL cells from 4 leukemia patients. Human CLL cells were isolated from blood samples and assayed for COG449 cytotoxicity. […] FIG. 5B: Dose response curves for COG445 on CLL cells from 7 patients or normal B-cells from 5 patients. Human CLL cells and PBMC were isolated and assayed for cytotoxicity of COG445.
Blood from CLL patients was collected and CD5+/CD19+ CLL cells were isolated using the RosetteSep™ Human B-Cell Enrichment Cocktail, according to the manufacturer's instructions, and treated with COG compounds. Compounds were applied to B-CLL cells (2.5×10^5 cells/well in a 96 well plate), after which the cells were treated for 72 hours.
Normal B-cells from volunteers and B-CLL cells from patients are isolated using the RosetteSep™ Human B Cell Enrichment Cocktail according to the manufacturer's instructions. This method depletes whole blood of T cells, monocytes, and NK cells using a proprietary antibody cocktail that cross-links unwanted cells in human whole blood to multiple red blood cells (RBCs) forming immunorosettes. This increases the density of the unwanted (rosetted) cells, such that they pellet along with the free RBCs when centrifuged over a buoyant density medium such as Ficoll-Paque®. This leaves the highly enriched B-cell or B-CLL cells at the interface between Ficoll and the plasma. The antibodies in the cocktail contain […] and anti-CD16 antibodies to remove T cells, monocytes, and NK cells, respectively. The purity of these B-cell and B-CLL preparations is then determined by flow cytometry.
For cytotoxicity assays, 3×10^6 CLL cells/well are cultured in 24 well tissue culture plates in 1.5 mL of Hybridoma SFM™ (Gibco, Long Island, N.Y.) as described by Levesque et al. (2001, 2003). All cultures are incubated at 37° C., 5% CO2 in air.

The subject of the next data set is normal B-cells. As to the kind of experiment: Cytotoxicity on normal B-cells from volunteers. The format is cell-based, human. The following applies: normal B-cells from volunteers.
Data set [1] in a line: Mouse toxicity, maximum tolerated dose by intravenous injection. The following applies: in vivo, maximum dose by intravenous injection without deaths after 24 hrs.
Text: as §1

The test system of another data set is U87MG glioblastoma cells. It counts as cell-based. The note with it: MTT. As for the experimental part: FIG. 14A: Dose response curve of COG445 on proliferation of U87 (open circles) and MDA-MB-231 (filled circles) cells as measured by MTT reduction. FIG. 14B: Dose response curve of COG445 on proliferation of MDA-MB-231 cells as measured by cell count.
To determine whether ApoE peptide dimers were cytotoxic to other types of cancer, we evaluated the effect of three different ApoE BMOE-linked peptide dimers (COG449, COG492, COG493; see Table I) on the growth characteristics of U87MG glioblastoma cells. Various concentrations of COG449, COG492, COG493 or Sorafenib were used to treat U87MG glioblastoma cells and viable cells were quanititated using MTT. Sorafenib, which has previously been reported to be cytotoxic to glioblastoma cells (Yang et al. (2010) Mol Cancer Ther., Vol. 9(4):953-962), was used as a positive control.
Because COG445 inhibited Akt activation and downstream signaling, we examined the effects of COG445 on cellular proliferation. Adherent MB231 and U87 cells were grown for ˜24 hours in the presence of COG445 and cellular proliferation was measured by MTT reduction. […] Furthermore, COG445 inhibited MB231 cellular proliferation as determined by cell count (FIG. 14B). Approximately 6×10^4 cells were plated in growth media (RPMI+10% FBS) for 24-hours with increasing concentrations of COG445. […] However at concentrations ≧1 μM COG445, there appears to be a loss of cells. This is partially explained by decreased proliferation, although it is possible that the rate of cellular degradation was increased in the presence of COG445.

Setting [2] is: read-out: CLL EC50, B-CLL cells from patients, 72 hours, MTS assay.

Text for normal B-cells: Normal B-cells from volunteers and B-CLL cells from patients are isolated using the RosetteSep™ Human B Cell Enrichment Cocktail according to the manufacturer's instructions. This method depletes whole blood of T cells, monocytes, and NK cells using a proprietary antibody cocktail that cross-links unwanted cells in human whole blood to multiple red blood cells (RBCs) forming immunorosettes. This increases the density of the unwanted (rosetted) cells, such that they pellet along with the free RBCs when centrifuged over a buoyant density medium such as Ficoll-Paque®. This leaves the highly enriched B-cell or B-CLL cells at the interface between Ficoll and the plasma. The antibodies in the cocktail contain anti-CD14, anti-CD2 and anti-CD16 antibodies to remove T cells, monocytes, and NK cells, respectively. The purity of these B-cell and B-CLL preparations is then determined by flow cytometry. Preparations typically average less than 2% CD3+ T-cells and less than 0.5% CD14+ monocytes. In the case of B-CLL cell isolation, we routinely obtain preparations that contain less than 1.5% normal CD19+/CD5− B-cells using this method.

For the compound `CC[C@H](C)[C@H](NC(=O)[C@H](CCCCN)NC(=O)[C@@H](NC(=O)[C@H](CCC(N)=O)NC(=O)[C@@H](N)CCCNC(=N)N)[C@@H](C)CC)C(=O)N[C@@H](Cc1c[nH]c2ccccc12)C(=O)N[C@@H](Cc1ccccc1)C(=O)N[C@@H](CCC(N)=O)C(=O)N[C@@H](CC(N)=O)C(=O)N[C@@H](CCCNC(=N)N)C(=O)N[C@@H](CCCNC(=N)N)C(=O)N[C@@H](CCSC)C(=O)N[C@@H](CCCCN)C(=O)N[C@@H](Cc1c[nH]c2ccccc12)C(=O)N[C@@H](CCCCN)C(=O)N[C@@H](CCCCN)C(=O)N[C@@H](CS)C(=O)N[C@@H](C)C(=O)N[C@@H](CO)C(=O)NC(C)(C)C(=O)N[C@@H](CC(C)C)C(=O)N[C@@H](CCCNC(=N)N)C(=O)N[C@@H](CCCCN)C(=O)N[C@@H](CC(C)C)C(=O)NC(C)(C)C(=O)N[C@@H](CCCCN)C(=O)N[C@@H](CCCNC(=N)N)C(=O)N[C@@H](CC(C)C)C(=O)N[C@@H](CC(C)C)C(=O)O` [COG120, RQIKIWFQNRRMKWKK-C-AS(Aib)LRKL(Aib)KRLL (SEQ ID NO: 7)] (H-RQIKIWFQNRRMKWKKCAS[Aib]LRKL[Aib]KRLL-OH; N-terminus and C-terminus assumed), the values for the EC50 with BV2 microglia cells and with B-CLL cells (setting [2]) were less than 1000 nM and 1000 nM, respectively. The “Fold Change” value in the data set on B-CLL cells was found to be 12.6.

On to `CC(=O)N[C@@H](CC(C)C)C(=O)N[C@@H](CCCNC(=N)N)C(=O)N[C@H](C(=O)N[C@@H](CCCNC(=N)N)C(=O)N[C@@H](CC(C)C)C(=O)N[C@@H](C)C(=O)N[C@@H](CO)C(=O)N[C@@H](Cc1c[nH]cn1)C(=O)N[C@@H](CC(C)C)C(=O)N[C@@H](CCCNC(=N)N)C(=O)N[C@@H](CCCCN)C(=O)N[C@@H](CC(C)C)C(=O)N[C@@H](CCCNC(=N)N)C(=O)N[C@@H](CCCCN)C(=O)N[C@@H](CCCNC(=N)N)C(=O)N[C@@H](CC(C)C)C(=O)N[C@@H](CC(C)C)C(N)=O)C(C)C` [COG133, LRVRLASHLRKLRKRLL (SEQ ID NO: 3)], for which the EC50 was 4400 ± 1500 nM in the data set with B-CLL cells (read-out: ED50 cytotoxic potency (text, Table I), CLL cells) and more than 20000 nM in the data set on normal B-cells. In data set [1], the MTD at 24 h was found to be 16 mg/kg.

`CC(=O)N[C@@H](CSC1CC(=O)N(CCN2C(=O)CC(SC[C@H](NC(C)=O)C(=O)N[C@@H](CC(C)C)C(=O)N[C@@H](CCCNC(=N)N)C(=O)N[C@H](C(=O)N[C@@H](CCCNC(=N)N)C(=O)N[C@@H](CC(C)C)C(=O)N[C@@H](C)C(=O)N[C@@H](CO)C(=O)N[C@@H](Cc3c[nH]cn3)C(=O)N[C@@H](CC(C)C)C(=O)N[C@@H](CCCNC(=N)N)C(=O)N[C@@H](CCCCN)C(=O)N[C@@H](CC(C)C)C(=O)N[C@@H](CCCNC(=N)N)C(=O)N[C@@H](CCCCN)C(=O)N[C@@H](CCCNC(=N)N)C(=O)N[C@@H](CC(C)C)C(=O)N[C@@H](CC(C)C)C(N)=O)C(C)C)C2=O)C1=O)C(=O)N[C@@H](CC(C)C)C(=O)N[C@@H](CCCNC(=N)N)C(=O)N[C@H](C(=O)N[C@@H](CCCNC(=N)N)C(=O)N[C@@H](CC(C)C)C(=O)N[C@@H](C)C(=O)N[C@@H](CO)C(=O)N[C@@H](Cc1c[nH]cn1)C(=O)N[C@@H](CC(C)C)C(=O)N[C@@H](CCCNC(=N)N)C(=O)N[C@@H](CCCCN)C(=O)N[C@@H](CC(C)C)C(=O)N[C@@H](CCCNC(=N)N)C(=O)N[C@@H](CCCCN)C(=O)N[C@@H](CCCNC(=N)N)C(=O)N[C@@H](CC(C)C)C(=O)N[C@@H](CC(C)C)C(N)=O)C(C)C` (some centres unmarked) [COG492, C-LRVRLASHLRKLRKRLL (SEQ ID NO: 15) <BMOE> C-LRVRLASHLRKLRKRLL (SEQ ID NO: 15)] had a maximum tolerated dose (MTD) at 24 h in data set [1] of 25 mg/kg. Moreover, in the data set on U87MG glioblastoma cells, the “cytotoxicity to U87MG cells” value is recorded as “cytotoxic”.

For `CC(C)C[C@H](NC(=O)[C@H](CC(C)C)NC(=O)[C@H](CCCNC(=N)N)NC(=O)[C@H](CCCCN)NC(=O)C(C)(C)NC(=O)[C@H](CC(C)C)NC(=O)[C@H](CCCCN)NC(=O)[C@H](CCCNC(=N)N)NC(=O)[C@H](CC(C)C)NC(=O)C(C)(C)NC(=O)[C@H](CO)NC(=O)[C@H](C)NC(=O)[C@H](CS)NC(=O)[C@H](CCCNC(=N)N)NC(=O)[C@H](CCCNC(=N)N)NC(=O)[C@H](CCCNC(=N)N)NC(=O)[C@H](CCC(N)=O)NC(=O)[C@H](CCCNC(=N)N)NC(=O)[C@H](CCCNC(=N)N)NC(=O)[C@H](CCCCN)NC(=O)[C@H](CCCCN)NC(=O)[C@H](CCCNC(=N)N)NC(=O)CNC(=O)[C@@H](N)Cc1ccc(O)cc1)C(=O)O` [COG226, YGRKKRRQRRR-C-AS(Aib)LRKL(Aib)KRLL (SEQ ID NO: 6)] (H-YGRKKRRQRRRCAS[Aib]LRKL[Aib]KRLL-OH), the figures for the EC50 with BV2 microglia cells and with B-CLL cells (setting [2]) were less than 1000 nM and 1400 nM, respectively. For the same compound, in the data set on B-CLL cells, the “Fold Change” value worked out at 9.2.

With “LLRKRLKRLHSALRVRL [COG056, LLRKRLKRLHSALRVRL (SEQ ID NO: 2), reference compound]”, the values for the EC50 in the data set with BV2 microglia cells and in the data set on B-CLL cells (setting [2]) were more than 20000 nM and 12900 nM, respectively. The “Fold Change” value in the data set on B-CLL cells is recorded as 1.0.
